For data set [1], the target named is T1, α-glucosidase (EC 3.2.1.20, type IV) (Saccharomyces cerevisiae, UniProt P53341).
T1 construct: purchased Sigma; host or cells: brewer's yeast
In words: Initial screening assay for enzyme inhibition, α-glucosidase. In kind it is biochemical, brewer's yeast. As to the method: (§1) Optically pure enantiomers of avarol were synthetically prepared. A survey of potential inhibitory activity by avarol against twelve glycosidases was performed according to general procedures^15 (see experimental section). The enzymes tested and their biological sources are listed in Table 1 along with any pertinent references found for a given enzyme. In order to determine a working range for enzyme and substrate concentrations in which the rate of product formation was linear and steady-state kinetics were applicable, initial rate studies with varying substrate concentrations were performed in the absence of inhibitor. The Michaelis constants (Km 's) and Vmax values for these enzymes were determined from these plots using standard graphical analysis procedures as described in ref. 17 and are summarized in Table 2.
Initial screening assays with the enantiomeric avarols indicated significant activity by these compounds against only two of the twelve enzymes studies. […] This can occur when the two species compete for the same site or nearby sites on the enzyme. The equilibria that describe competitive inhibition are shown below. [drawing 3]
(§2) Enzymatic Assays. Piperazine-N,N'-bix-(2-ethanesulfonic acid)(PIPES) buffer, enzymes, and substrates were purchased from Sigma and used as received. Buffer solutions and enzymes (desiccated) were stored at 4° C. p-Nitrophenyl glycoside substrates were stored desiccated at -20° C. Enzyme inhibition assays and initial rate studies were carried out with the appropriate p-nitrophenyl glycoside substrates following the general procedure of Kajimoto et al., J. Am. Chem. Soc. 113:6187 (1991) with the exception that amyloglucosidase (EC 3.2,1.3, Asp. niger) was assayed following the method of Saul et al., Arch. Biochem. Biophys. 221:593 (1983). Assays were performed in a Perkin-Elmer Lambda Array 3840 Spectrophotometer using the built-in drive method (resolution=0.25, average=8) in a quartz cuvette (1 cm pathlength). Background absorption spectra were acquired using millipore filtered water as medium. Steady-state kinetics were maintained by adjusting the amount of enzyme used in each assay so that less than 10% of the substrate was converted to product for the duration of the reaction. Reactions were monitored at 400 nm (the absorbance of the p-nitrophenol product, ε=3204.5 M^-1 cm^-1) for a given amount of time and the initial rates were calculated and expressed as μmols p-nitrophenol formed per unit enzyme per second. Absportion readings for control reactions were corrected for the small baseline absorbance at time zero. Small discrepancies between time zero absorbance readings in a given inhibition assay and a time zero reading in a control assay were used to correct the overall absorbance change calculated in the inhibition assay. Inhibitors were dissolved in uv-grade absolute methanol.
(§3) Typical assay: A 1.5-mL quartz cuvette was charged with 940 μL of PIPES-NaOAc buffer solution (pH 6.56), 20 μL of inhibitor solution, and 20 μL of enzyme solution. The result was mixed well and then equilibrated at 37° C. for two minutes. 20 μL of the appropriate p-nitrophenyl glycoside solution was then added to initiate the reaction with rapid mixing. The reaction was monitored at 400 nm for 1 min and the absorbance change was used to calculate the initial hydrolysis rate. Lineweaver-Burk plots were constructed by repeating this procedure with varying substrate and inhibitor concentrations.

In data set [2] the test system is β-N-acetylglucosaminidase (EC 3.2.1.30). The data set can be described thus: Initial screening assay for enzyme inhibition, β-N-acetylglucosaminidase. It is filed as biochemical, bovine kidney. The settings on record: 20 μM inhibitor, 2% MeOH. As to the method:
as §1
as §2, with “Inhibitors were dissolved in uv-grade absolute methanol.” left out
(§4) Typical assay: A 1.5-mL quartz cuvette was charged with 940 μL of PIPES-NaOAc buffer solution (pH 6.56), 20 μL of inhibitor solution, and 20 μL of enzyme solution. […] The reaction was monitored at 400 nm for 1 min and the absorbance change was used to calculate the initial hydrolysis rate. […]

Data set [3] has as its target T2, β-galactosidase (EC 3.2.1.23, grade XI) (Aspergillus oryzae, UniProt Q2UCU3).
T2 construct: purchased Sigma; host or cells: Aspergillus oryzae
The data set can be described thus: Initial screening assay for enzyme inhibition, β-galactosidase (Asp. oryzae). In kind it is biochemical. The note with it: 20 μM inhibitor, 2% MeOH, read-out: % Enzyme activity relative to control. As to the method: as §1
as §2, with “Inhibitors were dissolved in uv-grade absolute methanol.” left out
as §4

Data set [4] has as its target T3, β-galactosidase (EC 3.2.1.23) (Aspergillus niger, UniProt P29853).
T3 construct: purchased Sigma; host or cells: Aspergillus niger
The data set can be described thus: Initial screening assay for enzyme inhibition, β-galactosidase (Asp. niger). In kind it is biochemical. The settings on record: 20 μM inhibitor, 2% MeOH, read-out: % Enzyme activity relative to control. Here is the method: as §1
as §2, with “Inhibitors were dissolved in uv-grade absolute methanol.” left out
as §4

In data set [5] the target is T4, α-L-fucosidase (EC 3.2.1.51) (Bos taurus, UniProt Q2KIM0).
T4 construct: purchased Sigma; host or cells: bovine kidney
T4 sequence (Q2KIM0 23-468): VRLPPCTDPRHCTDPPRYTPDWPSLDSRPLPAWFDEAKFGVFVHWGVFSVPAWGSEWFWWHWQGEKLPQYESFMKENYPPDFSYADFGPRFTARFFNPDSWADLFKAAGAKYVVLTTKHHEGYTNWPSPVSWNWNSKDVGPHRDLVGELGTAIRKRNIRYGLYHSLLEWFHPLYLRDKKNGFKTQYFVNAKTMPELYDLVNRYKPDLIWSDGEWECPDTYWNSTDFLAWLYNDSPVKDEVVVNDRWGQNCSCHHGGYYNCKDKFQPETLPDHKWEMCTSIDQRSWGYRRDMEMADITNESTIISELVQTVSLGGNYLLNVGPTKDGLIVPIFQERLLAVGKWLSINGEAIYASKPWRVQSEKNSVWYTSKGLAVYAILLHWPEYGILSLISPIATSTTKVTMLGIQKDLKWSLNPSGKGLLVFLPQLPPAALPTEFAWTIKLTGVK
The data set can be described thus: Initial screening assay for enzyme inhibition, α-L-fucosidase. In kind it is biochemical, bovine kidney. The note with it: read-out: % Enzyme activity relative to control. As to the method: as §1
as §2, with “Inhibitors were dissolved in uv-grade absolute methanol.” left out
as §4

Data set [6] has as its system α-galactosidase (EC 3.2.1.22). The data set can be described thus: Initial screening assay for enzyme inhibition, α-galactosidase (E. coli). In kind it is biochemical, Escherichia coli. The settings on record: 20 μM inhibitor, 2% MeOH. As to the method:
as §1
as §2, with “Inhibitors were dissolved in uv-grade absolute methanol.” left out
as §4

The target of data set [7] is T5, α-galactosidase (EC 3.2.1.22) (Coffea arabica, UniProt Q42656).
T5 construct: purchased Sigma; host or cells: green coffee beans
T5 sequence (Q42656 16-378): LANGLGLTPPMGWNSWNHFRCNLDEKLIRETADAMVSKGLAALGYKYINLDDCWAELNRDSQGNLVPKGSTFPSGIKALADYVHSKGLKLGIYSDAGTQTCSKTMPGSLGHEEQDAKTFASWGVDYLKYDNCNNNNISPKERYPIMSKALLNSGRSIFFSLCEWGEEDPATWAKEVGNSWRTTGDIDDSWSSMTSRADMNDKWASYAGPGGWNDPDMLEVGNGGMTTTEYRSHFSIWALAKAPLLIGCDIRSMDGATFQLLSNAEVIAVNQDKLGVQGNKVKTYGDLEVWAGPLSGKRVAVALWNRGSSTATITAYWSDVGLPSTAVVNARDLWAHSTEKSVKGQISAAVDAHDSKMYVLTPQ
The data set can be described thus: Initial screening assay for enzyme inhibition, α-galactosidase (green coffee beans). It is filed as biochemical. The settings on record: read-out: % Enzyme activity relative to control. As to the method:
as §1
as §2, with “Inhibitors were dissolved in uv-grade absolute methanol.” left out
as §4

The test system of data set [8] is amyloglucosidase (EC 3.2.1.3). The data set can be described thus: Initial screening assay for enzyme inhibition, amyloglucosidase. It is filed as biochemical, Aspergillus niger. The settings on record: for % Enzyme activity relative to control: amyloglucosidase, 20 μM inhibitor, 2% MeOH. Here is the method: as §1, §2, §3
Data set [9] concerns β-mannosidase (EC 3.2.1.25). In words: Initial screening assay for enzyme inhibition, β-mannosidase. The settings on record: 20 μM inhibitor, 2% MeOH. In kind it is biochemical, snail. Here is the method:
as §1
as §2, with “Inhibitors were dissolved in uv-grade absolute methanol.” left out
as §4

For data set [10], the target named is T6, β-xylosidase (EC 3.2.1.37) (Aspergillus niger, UniProt O00089).
T6 construct: purchased Sigma; host or cells: Aspergillus niger
T6 sequence (O00089 27-804): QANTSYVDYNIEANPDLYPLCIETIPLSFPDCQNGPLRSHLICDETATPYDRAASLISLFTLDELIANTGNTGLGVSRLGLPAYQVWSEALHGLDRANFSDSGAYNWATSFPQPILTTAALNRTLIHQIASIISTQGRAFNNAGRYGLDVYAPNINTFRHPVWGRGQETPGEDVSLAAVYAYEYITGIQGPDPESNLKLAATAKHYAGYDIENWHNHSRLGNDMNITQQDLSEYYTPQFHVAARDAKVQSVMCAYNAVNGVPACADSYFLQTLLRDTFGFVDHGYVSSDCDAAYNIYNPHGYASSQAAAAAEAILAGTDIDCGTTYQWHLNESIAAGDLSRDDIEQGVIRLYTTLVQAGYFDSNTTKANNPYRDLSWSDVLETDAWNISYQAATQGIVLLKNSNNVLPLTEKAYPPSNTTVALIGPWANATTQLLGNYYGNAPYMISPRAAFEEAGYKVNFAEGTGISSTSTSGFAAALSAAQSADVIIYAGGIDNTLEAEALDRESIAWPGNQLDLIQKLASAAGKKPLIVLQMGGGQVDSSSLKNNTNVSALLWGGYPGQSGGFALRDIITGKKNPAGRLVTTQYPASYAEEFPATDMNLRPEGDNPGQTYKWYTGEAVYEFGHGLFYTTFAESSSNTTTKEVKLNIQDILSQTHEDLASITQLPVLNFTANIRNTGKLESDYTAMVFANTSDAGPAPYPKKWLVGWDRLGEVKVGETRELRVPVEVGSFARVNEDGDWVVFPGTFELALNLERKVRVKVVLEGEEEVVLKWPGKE
The data set can be described thus: Initial screening assay for enzyme inhibition, β-xylosidase. In kind it is biochemical. The settings on record: 20 μM inhibitor, 2% MeOH, read-out: % Enzyme activity relative to control. As to the method:
as §1
as §2, with “Inhibitors were dissolved in uv-grade absolute methanol.” left out
as §4

Data set [11] has as its system microtubule polymerization. The settings on record: in vitro and in vivo; cited from earlier work.
In data set [12] the test system is L5178Y mouse lymphoma cells. The settings on record: in vitro and in vivo; cited from earlier work.
Another data set deals with HTLV-III/LAV. The note with it: in vitro; cited from earlier work.
A further data set concerns Ames-microsomal assay. The note with it: cited from earlier work.
In data set [13] the test system is benzo[a]pyrene monooxygenase. The settings on record: cited from earlier work.
For data set [14] the following is noted: documented; cited from earlier work.

Read-outs that look alike come from different tables or passages of the source.

T2 sequence (Q2UCU3 19-1005): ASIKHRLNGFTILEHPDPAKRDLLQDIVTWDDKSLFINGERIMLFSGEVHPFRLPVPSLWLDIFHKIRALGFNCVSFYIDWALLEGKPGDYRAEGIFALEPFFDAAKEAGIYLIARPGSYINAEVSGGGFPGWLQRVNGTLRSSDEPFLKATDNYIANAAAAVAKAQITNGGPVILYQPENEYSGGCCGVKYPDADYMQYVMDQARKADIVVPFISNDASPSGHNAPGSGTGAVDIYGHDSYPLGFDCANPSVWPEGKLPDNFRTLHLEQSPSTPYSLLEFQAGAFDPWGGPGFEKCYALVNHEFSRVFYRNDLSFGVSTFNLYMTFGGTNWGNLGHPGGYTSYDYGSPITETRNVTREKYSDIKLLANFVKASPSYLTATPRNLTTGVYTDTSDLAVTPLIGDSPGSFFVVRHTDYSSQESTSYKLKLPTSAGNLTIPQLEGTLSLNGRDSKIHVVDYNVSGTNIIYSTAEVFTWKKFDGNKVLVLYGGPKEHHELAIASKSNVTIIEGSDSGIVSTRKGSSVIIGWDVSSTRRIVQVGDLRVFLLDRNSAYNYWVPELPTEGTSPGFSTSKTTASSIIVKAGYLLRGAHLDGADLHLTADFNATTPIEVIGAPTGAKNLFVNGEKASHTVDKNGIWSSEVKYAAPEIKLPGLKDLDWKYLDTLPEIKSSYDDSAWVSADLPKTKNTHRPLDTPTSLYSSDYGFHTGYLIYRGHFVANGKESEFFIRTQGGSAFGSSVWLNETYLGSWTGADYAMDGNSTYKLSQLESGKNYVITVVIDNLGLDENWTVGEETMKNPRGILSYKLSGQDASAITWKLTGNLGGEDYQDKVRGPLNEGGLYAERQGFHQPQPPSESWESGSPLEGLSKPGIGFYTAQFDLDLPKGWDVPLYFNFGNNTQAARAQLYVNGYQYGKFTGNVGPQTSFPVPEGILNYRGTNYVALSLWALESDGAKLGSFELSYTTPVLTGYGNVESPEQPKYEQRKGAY
T3 sequence (P29853 20-1006): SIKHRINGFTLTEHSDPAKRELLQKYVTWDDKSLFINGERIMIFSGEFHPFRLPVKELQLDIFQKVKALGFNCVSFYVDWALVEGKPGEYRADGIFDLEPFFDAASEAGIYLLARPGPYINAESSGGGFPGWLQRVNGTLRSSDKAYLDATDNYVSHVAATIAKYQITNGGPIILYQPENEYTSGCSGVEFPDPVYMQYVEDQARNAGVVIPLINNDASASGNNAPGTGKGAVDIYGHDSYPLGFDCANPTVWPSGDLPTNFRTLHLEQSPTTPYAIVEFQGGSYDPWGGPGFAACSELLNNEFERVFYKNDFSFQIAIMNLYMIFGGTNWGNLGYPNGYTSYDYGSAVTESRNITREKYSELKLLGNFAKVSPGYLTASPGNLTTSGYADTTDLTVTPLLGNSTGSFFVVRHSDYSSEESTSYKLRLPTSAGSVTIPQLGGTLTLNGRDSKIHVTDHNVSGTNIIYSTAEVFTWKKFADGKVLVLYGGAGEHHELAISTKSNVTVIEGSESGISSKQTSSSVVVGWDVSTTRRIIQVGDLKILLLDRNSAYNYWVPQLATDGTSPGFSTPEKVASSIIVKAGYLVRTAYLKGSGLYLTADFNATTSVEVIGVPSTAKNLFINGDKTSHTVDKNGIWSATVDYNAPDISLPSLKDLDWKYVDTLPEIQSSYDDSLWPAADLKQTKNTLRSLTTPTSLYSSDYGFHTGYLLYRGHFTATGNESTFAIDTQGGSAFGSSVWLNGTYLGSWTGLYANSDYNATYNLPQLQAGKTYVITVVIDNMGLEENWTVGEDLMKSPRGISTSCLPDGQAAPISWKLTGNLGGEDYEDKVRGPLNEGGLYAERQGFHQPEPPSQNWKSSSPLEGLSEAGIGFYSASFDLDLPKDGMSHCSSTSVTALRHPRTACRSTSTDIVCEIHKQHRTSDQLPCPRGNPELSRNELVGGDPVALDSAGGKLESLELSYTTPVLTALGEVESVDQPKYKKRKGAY
T1 sequence (P53341 whole entry): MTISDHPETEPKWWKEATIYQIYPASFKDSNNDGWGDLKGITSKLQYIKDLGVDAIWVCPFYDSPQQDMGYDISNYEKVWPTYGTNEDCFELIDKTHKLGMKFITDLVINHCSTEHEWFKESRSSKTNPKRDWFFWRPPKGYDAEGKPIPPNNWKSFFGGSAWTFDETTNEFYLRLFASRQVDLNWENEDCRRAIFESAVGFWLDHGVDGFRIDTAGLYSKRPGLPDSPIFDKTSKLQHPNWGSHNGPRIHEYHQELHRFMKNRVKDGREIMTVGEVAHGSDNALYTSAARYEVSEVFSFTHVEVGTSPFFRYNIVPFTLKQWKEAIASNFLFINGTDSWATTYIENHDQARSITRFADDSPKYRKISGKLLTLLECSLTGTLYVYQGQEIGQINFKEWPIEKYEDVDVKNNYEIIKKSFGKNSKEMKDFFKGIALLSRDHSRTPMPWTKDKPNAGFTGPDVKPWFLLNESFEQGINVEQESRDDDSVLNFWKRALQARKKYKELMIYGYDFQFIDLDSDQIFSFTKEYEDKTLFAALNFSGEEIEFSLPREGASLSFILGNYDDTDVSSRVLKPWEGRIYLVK

What is called inhibition is the percentage by which the read-out fell short of the control. A higher inhibition goes with strong suppression. In data set [1] (20 μM), `C=C1CCC[C@H]2[C@](C)(CC3=C(O)C(=O)C=C(OC)C3=O)[C@@H](C)CC[C@]12C` [ilimaquinone, reference compound] came in with an inhibition at 20 µM of 20%. The remaining activity at 20 µM in data set [1] (α-glucosidase, 20 μM inhibitor, 2% MeOH, read-out: % Enzyme activity relative to control) stood at 82%; in data set [3], 98%; in data set [4], 111%; in data set [5] (α-L-fucosidase, 20 μM inhibitor, 2% MeOH) it was 109%; in data set [7] (α-galactosidase (green coffee beans), 20 μM inhibitor, 2% MeOH) it was 97%; in data set [10], 105%. Further, the “% Enzyme activity relative to control” value in data set [2] came to 96%; in [6] it was 101%; in [8], 57%; in data set [9], 108%. In addition, the “inhibition of amyloglucosidase (in words)” value in [8] (Table 3) is listed as “strong inhibitor of amyloglucosidase”.
With `CC1=CCC[C@H]2[C@](C)(CC/C(C)=C/C[n+]3cn(C)c4ncnc(N)c43)[C@@H](C)CC[C@]12C` [C-4-10], the “% Enzyme activity relative to control” value was 91% in data set [2], 102% in data set [6], 94% in data set [8] and 109% in data set [9]. Further, the remaining activity at 20 µM in [3] was 108%; in [4], 95%; in [5], 100%; in data set [7], 96%; in [10], 102%.
Take `CC1=CCC[C@H]2[C@](C)(Cc3cc(O)ccc3O)[C@@H](C)CC[C@]12C` [avarol]: the “inhibition of microtubule polymerization” value in data set [11] is “inhibition of microtubule polymerization”. The “cytotoxicity against L5178Y mouse lymphoma cells” value in data set [12] is recorded as “highly selective cytotoxicity”. Also, in the data set with HTLV-III/LAV, the “inhibition of replication of HTLV-III/LAV” value is on record as “inhibition of replication”. Moreover, the mutagenicity result with Ames-microsomal assay is reported as “neither direct nor indirect mutagens”. Moreover, the “antimutagenic activity through inhibition of benzo[a]pyrene monooxygenase” value in data set [13] is “antimutagenic activity through the inhibition of benzo[a]pyrene monooxygenase”. Moreover, the toxicity result in data set [14] is “low toxicity”.
With `CC1=CCC[C@H]2[C@](C)(CC3=CC(=O)C=CC3=O)[C@@H](C)CC[C@]12C` [avarone, Avarone], the mutagenicity result in the data set with Ames-microsomal assay is “neither direct nor indirect mutagens”. For the same compound, in [13], the “antimutagenic activity through inhibition of benzo[a]pyrene monooxygenase” value was “antimutagenic activity through the inhibition of benzo[a]pyrene monooxygenase”. Moreover, the toxicity result in [14] is given as “low toxicity”.
